Key:
Assay in all cases: relative viability (nuclei count vs DMSO), 5 days (fraction); higher = more cells survive
Fedratinib + Dasatinib = compound: Cc1cnc(Nc2ccc(OCCN3CCCC3)cc2)nc1Nc1cccc(S(=O)(=O)NC(C)(C)C)c1 [Fedratinib] + Cc1nc(Nc2ncc(C(=O)Nc3c(C)cccc3Cl)s2)cc(N2CCN(CCO)CC2)n1 [Dasatinib] (partner 0.075 µM)
Procedure, shortened: (§1)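 Dosing by pin tool came one day after lung cancer cell lines were seeded in 1536-well plates, using either one drug or a fixed anchor-drug dose plus five library-drug doses (not always all listed) in √10 steps. After 5 days, nuclei were counted on 4× images. Relative viability is treated-well nuclei count divided by vehicle-well nuclei count, and values are medians of duplicate plates.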

GW-2580 + Bortezomib = compound: COC1=CC=C(C=C1)COC2=C(C=C(C=C2)CC3=CN=C(N=C3N)N)OC [GW-2580] + CC(C)C[C@H](NC(=O)[C@H](Cc1ccccc1)NC(=O)c1cnccn1)B(O)O [Bortezomib] (partner 0.002 µM)
Procedure, shortened: as §1

GW-2580 + Decitabine = compound: COC1=CC=C(C=C1)COC2=C(C=C(C=C2)CC3=CN=C(N=C3N)N)OC [GW-2580] + Nc1ncn([C@H]2C[C@H](O)[C@@H](CO)O2)c(=O)n1 [Decitabine] (partner 2 µM)
Procedure, shortened: as §1

GW-2580 + Tozasertib = compound: COC1=CC=C(C=C1)COC2=C(C=C(C=C2)CC3=CN=C(N=C3N)N)OC [GW-2580] + Cc1cc(Nc2cc(N3CCN(C)CC3)nc(Sc3ccc(NC(=O)C4CC4)cc3)n2)n[nH]1 [Tozasertib] (partner 0.1 µM)
Procedure, shortened: as §1

GW-2580 + Phenformin = compound: COC1=CC=C(C=C1)COC2=C(C=C(C=C2)CC3=CN=C(N=C3N)N)OC [GW-2580] + N=C(N)NC(=N)NCCc1ccccc1 [Phenformin] (partner 250 µM)
Procedure, shortened: as §1

| Cell Line | relative viability (Fedratinib + Dasatinib; first compound 0.1 µM) | relative viability (Fedratinib + Dasatinib; first compound 0.3162 µM) | relative viability (Fedratinib + Dasatinib; first compound 1 µM) | relative viability (GW-2580 + Bortezomib; first compound 0.08 µM) | relative viability (GW-2580 + Bortezomib; first compound 0.8 µM) | relative viability (GW-2580 + Bortezomib; first compound 2.53 µM) | relative viability (GW-2580 + Bortezomib; first compound 8 µM) | relative viability (GW-2580 + Decitabine; first compound 0.08 µM) | relative viability (GW-2580 + Decitabine; first compound 0.8 µM) | relative viability (GW-2580 + Decitabine; first compound 2.53 µM) | relative viability (GW-2580 + Decitabine; first compound 8 µM) | relative viability (GW-2580 + Tozasertib; first compound 0.08 µM) | relative viability (GW-2580 + Tozasertib; first compound 0.8 µM) | relative viability (GW-2580 + Tozasertib; first compound 2.53 µM) | relative viability (GW-2580 + Tozasertib; first compound 8 µM) | relative viability (GW-2580 + Phenformin; first compound 0.08 µM) | relative viability (GW-2580 + Phenformin; first compound 0.8 µM) | relative viability (GW-2580 + Phenformin; first compound 2.53 µM) | relative viability (GW-2580 + Phenformin; first compound 8 µM) |
| --- | --- | --- | --- | --- | --- | --- | --- | --- | --- | --- | --- | --- | --- | --- | --- | --- | --- | --- | --- |
| 201T | 0.515 | 0.571 | 0.545 | 1.15 | 1.12 | 1.11 | 1.14 | 0.895 | 0.914 | 0.873 | 0.887 | 0.998 | 0.935 | 0.96 | 0.82 | 0.466 | 0.418 | 0.461 | 0.433 |
| A549 | – | – | – | – | – | – | – | – | 0.264 | 0.21 | 0.288 | – | – | – | – | 0.19 | 0.193 | 0.105 | 0.0849 |
| CAL-12T | 0.47 | 0.277 | 0.285 | 0.901 | 1.28 | 0.884 | 1.16 | – | – | – | – | 0.422 | 0.365 | 0.349 | 0.297 | 0.624 | 0.613 | 0.609 | 0.514 |
| Calu-6 | – | – | – | 1.06 | 1.09 | 0.948 | 1.05 | – | – | – | – | – | – | – | – | – | – | – | – |
| EBC-1 | – | – | – | 0.609 | 0.572 | 0.492 | 0.554 | – | – | – | – | – | – | – | – | – | – | – | – |
| HCC-44 | – | – | – | 0.95 | 0.997 | 0.822 | 0.914 | 0.97 | 0.912 | 0.974 | 1.08 | 1.13 | 0.913 | 0.937 | 0.918 | 0.181 | 0.153 | 0.183 | 0.253 |
| IA-LM | – | – | – | 0.967 | 0.574 | 0.912 | 0.865 | – | – | – | – | – | – | – | – | – | – | – | – |
| LK-2 | 0.206 | 0.227 | 0.168 | – | – | – | – | 0.227 | 0.3 | 0.253 | 0.334 | 0.173 | 0.166 | 0.192 | 0.171 | 0.37 | 0.544 | 0.318 | 0.391 |
| NCI-H358 | 0.148 | 0.147 | 0.129 | – | – | – | – | 0.208 | 0.206 | 0.201 | 0.217 | 0.103 | 0.117 | 0.11 | 0.104 | 0.365 | 0.518 | 0.36 | 0.353 |
| NCI-H522 | 0.88 | 1.05 | 0.599 | – | – | – | – | 0.738 | 0.62 | 0.668 | 0.682 | 0.551 | 0.579 | 0.318 | 0.541 | 0.659 | 0.638 | 0.959 | 0.754 |
| NCI-H1299 | – | – | – | 1.02 | 0.949 | 1.07 | 0.941 | – | – | – | – | – | – | – | – | – | – | – | – |
| NCI-H1395 | 0.36 | 0.45 | 0.378 | – | – | – | – | 0.793 | 0.689 | 0.753 | 0.776 | 0.829 | 0.805 | 0.658 | 0.734 | 0.452 | 0.484 | 0.421 | 0.438 |
| NCI-H1563 | 0.504 | 0.44 | 0.429 | 0.8 | 0.986 | 0.764 | 0.842 | – | – | – | – | – | – | – | – | 0.69 | 0.679 | 0.647 | 0.637 |

Source: the supplement of paper PMC10307832
